Results taken from US8802664B2 (Bioproject, priority 2010, dated 2014).

target: T1, human H4 receptor (Homo sapiens, UniProt Q9H3N8); experiment: [3H]Histamine binding on membranes of CHO cells stably expressing human H4 receptor; details: not given
T1 construct: expressed in transfected cells
Description: CHO cells stably expressing human H4 receptor were grown until sub-confluence and centrifuged at 300 g 15 minutes at 4° C. Pellets were resuspended in buffer I Tris-HCl 50 mM, MgCl2 10 mM, NaCl 140 mM, pH=7.4 supplemented by a 1/50 dilution of a mix of protease inhibitors. The obtained suspension is stirred gently and submitted to a […] exerted through a syringe. The cell lysate is then centrifuged at 300 g 15 minutes at 4° C. in order to eliminate nucleus and cell scraps. The obtained supernatant was then centrifuged at 48000 g for 30 minutes at 4° C. The final pellet is resuspended in buffer I with a potter homogenizer. Aliquots were frozen in liquid nitrogen and stored until use at −80° C. Protein content is measured by the Bradford method.
Defreezed membranes were diluted at a final concentration of 20 μg/180 μL/well in a binding buffer containing 50 mM Tris/HCl, 0.5 mM EDTA, pH=7.4 and distributed in 96 well polystyrene microplate. [^3H] […] Non specific binding was estimated in the presence of 10 μM BP1.2404 (JNJ 7777120). The reaction was terminated by filtration through GF/B filters pre-soaked 2 hours at 4° C. in […]. Filters were rinsed 3 times with 250 μl of ice cold incubation binding buffer.
The filter-bound radioactivity was measured in a liquid scintillation counter Microbeta TRILUX® with 50 μl of scintillation fluid.
The hH4 binding investigated by use of [^3H]

| SMILES | Ki or IC50 activity class |
| --- | --- |
| CCCCOc1cccc(C(NC2CCN(C)CC2)c2nc3ccccc3[nH]2)c1 (centres unmarked) [Example 69, [(1H-benzimidazol-2-yl)(3-butoxyphenyl)methyl](1-methylpiperidin-4-yl)amine] | < 30 nM |
| CN1CCC(OC(c2cccc(OCCCCCN)c2)c2nc3ccccc3s2)CC1 (centres unmarked) [Example 371, 5-{3-[benzothiazol-2-yl(1-methylpiperidin-4-yloxy)methyl]phenoxy}pentylamine] | < 30 nM |
| Cc1ccc(C(OC2CCN(C)CC2)c2nc3ccccc3[nH]2)cc1 (single isomer, unassigned) [Example 252, 2-[(1-methylpiperidin-4-yloxy)-p-tolylmethyl]-1H-benzimidazole] | < 1000 nM |
| Cc1cc(F)c(C(OC2CCN(C)CC2)c2nc3ccccc3[nH]2)c(F)c1 (single isomer, unassigned) [Example 559, 2-[(2,6-difluoro-4-methylphenyl)(1-methylpiperidin-4-yloxy)methyl]-1H-benzimidazole] | < 30 nM |
| CN1CCC(OC(c2cccc(C#CCCNC(=N)N)c2)c2nc3ccccc3s2)CC1 (centres unmarked) [Example 372, N-(4-{3-[benzothiazol-2-yl(1-methylpiperidin-4-yloxy)methyl]phenyl}but-3-ynyl)guanidine] | < 30 nM |
| CN1CCC(COC(c2cccc(Br)c2)c2nc3cc(F)ccc3[nH]2)C1 (centres unmarked) [Example 449, 2-[(3-bromophenyl)(1-methylpyrrolidin-3-ylmethoxy)methyl]-5-fluoro-1H-benzimidazole] | < 30 nM |
| CCCCOc1cccc(C(NC2CCN(C)CC2)c2nc3ccccc3s2)c1 (centres unmarked) [Example 91, [benzothiazol-2-yl(3-butoxyphenyl)methyl](1-methylpiperidin-4-yl)amine] | < 30 nM |
| CN1CCC(OC(c2nc3ccccc3[nH]2)c2c(F)cccc2F)CC1 (centres unmarked) [Example 512] | < 30 nM |
| CN1CCC(OC(c2cccc(OCCN3CCN(C(=O)OC(C)(C)C)CC3)c2)c2nc3ccccc3[nH]2)CC1 (centres unmarked) [Example 369, 4-(2-{3-[(1H-benzimidazol-2-yl)(1-methylpiperidin-4-yloxy)methyl]phenoxy}ethyl)piperazine-1-carboxylic acid tert-butyl ester] | < 1000 nM |
| Nc1ccc(C(OC2CCNCC2)c2nc3ccccc3[nH]2)cc1 (centres unmarked) [Example 456, 4-[(1H-benzimidazol-2-yl)(piperidin-4-yloxy)methyl]aniline] | < 1000 nM |
| CN1CCC(NC(c2cccc(-c3ccccc3)c2)c2nc3ccccc3s2)CC1 (centres unmarked) [Example 102, (benzothiazol-2-ylbiphenyl-3-ylmethyl)(1-methylpiperidin-4-yl)amine] | < 30 nM |
| CN1CCC(OC(c2cccc(Cl)c2)c2nc3ccccc3[nH]2)CC1 (centres unmarked) [Example 225, 2-[(3-chlorophenyl)(1-methylpiperidin-4-yloxy)methyl]-1H-benzimidazole] | < 300 nM |
| CN1CCC(OC(c2cccc(SCC(=O)NCCN)c2)c2nc3cc(F)ccc3[nH]2)CC1 (centres unmarked) [Example 459] | < 30 nM |
| CN1CCC(OC(c2nc3cccc(F)c3[nH]2)c2cc(OC(F)(F)F)ccc2F)CC1 (centres unmarked) [Example 529] | < 300 nM |
| CSc1cccc(C(OC2CCN(C)CC2)c2nc3ccccc3[nH]2)c1 (centres unmarked) [Example 202, 2-[(1-methylpiperidin-4-yloxy)(3-methylsulfanyl-phenyl)methyl]-1H-benzimidazole] | < 30 nM |
| CN1CCC(NC(c2cccc(OCC3CCCCC3)c2)c2nc3ccccc3s2)CC1 (centres unmarked) [Example 93, [benzothiazol-2-yl(3-cyclohexylmethoxyphenyl)methyl](1-methylpiperidin-4-yl)amine] | < 300 nM |
| CN1CCC(OC(c2nc3ccccc3[nH]2)c2cc(OCCF)ccc2F)CC1 (centres unmarked) [Example 489] | < 30 nM |
| CN1CCC(OC(c2cccc(-c3ccccc3CO)c2)c2nc3ccccc3s2)CC1 (centres unmarked) [Example 127, {3′-[benzothiazol-2-yl(1-methylpiperidin-4-yloxy)methyl]biphenyl-2-yl}methanol] | < 300 nM |
| CN1CCC(OC(c2nc3ccccc3[nH]2)c2ccc(F)cc2F)CC1 (centres unmarked) [Example 221, 2-[(2,4-difluorophenyl)(1-methylpiperidin-4-yloxy)methyl]-1H-benzimidazole] | < 300 nM |
| CN1CCC(OC(c2ccc3c(c2)OCO3)c2nc3ccccc3[nH]2)CC1 (centres unmarked) [Example 297, 2-[benzo[1,3]dioxol-5-yl(1-methylpiperidin-4-yloxy)methyl]-1H-benzimidazole] | < 300 nM |

Results, then the compound that gave them:

| Ki or IC50 activity class | SMILES |
| --- | --- |
| < 300 nM | CN1CCC(OC(c2ccc3occc3c2)c2nc3ccccc3s2)CC1 (centres unmarked) [Example 46, 2-[benzofuran-5-yl(1-methylpiperidin-4-yloxy)methyl]benzothiazole] |
| < 30 nM | CN1CCC(OC(c2cccc(C#CCCCN)c2)c2nc3ccccc3s2)CC1 (centres unmarked) [Example 287, 5-{3-[benzothiazol-2-yl(1-methylpiperidin-4-yloxy)methyl]phenyl}pent-4-ynylamine] |
| < 300 nM | CN1CCC(OC(c2cccc(OCCO)c2)c2nc3ccccc3s2)CC1 (centres unmarked) [Example 244, 2-{3-[benzothiazol-2-yl(1-methylpiperidin-4-yloxy)methyl]phenoxy}ethanol] |
| < 30 nM | CN1CCC(OC(c2cccc(OCc3cccc(F)c3F)c2)c2nc3ccccc3s2)CC1 (centres unmarked) [Example 161, 2-[[3-(2,3-difluorobenzyloxy)phenyl](1-methylpiperidin-4-yloxy)methyl]benzothiazole] |
| < 300 nM | CN1CCC(OC(c2cccc(F)c2)c2nc3ccccc3s2)CC1 (centres unmarked) [Example 5] |
| < 300 nM | CCOC(=O)c1cccc(C(OC2CCN(C)CC2)c2nc3ccccc3s2)c1 (centres unmarked) [Example 206, 3-[benzothiazol-2-yl(1-methylpiperidin-4-yloxy)methyl]benzoic acid ethyl ester] |
| < 30 nM | CN1CCC(OC(c2cccc(OCCCCN)c2)c2nc3ccccc3s2)CC1 (centres unmarked) [Example 301, 4-{3-[benzothiazol-2-yl(1-methylpiperidin-4-yloxy)methyl]phenoxy}butylamine] |
| < 300 nM | CN1CCC(OC(c2cccc(-c3ccc(F)c(F)c3F)c2)c2nc3ccccc3s2)CC1 (centres unmarked) [Example 141, 2-[(1-methylpiperidin-4-yloxy)(2′,3′,4′-trifluorobiphenyl-3-yl)methyl]benzothiazole] |
| < 1000 nM | CN1CCC(OC(c2cccc(CCCCO)c2)c2nc3ccccc3s2)CC1 (centres unmarked) [Example 238, 4-{3-[benzothiazol-2-yl(1-methylpiperidin-4-yloxy)methyl]phenyl}butan-1-ol] |
| < 300 nM | CN1CCC(OC(c2cc(F)cc(F)c2)c2nc3ccccc3s2)CC1 (centres unmarked) [Example 15, 2-[(3,5-difluorophenyl)(1-methyl-piperidin-4-yloxy)methyl]benzothiazole] |
| < 30 nM | CN1CCC(OC(c2cccc(N3CCC(=O)C3)c2)c2nc3ccccc3s2)CC1 (centres unmarked) [Example 443, 1-{3-[benzothiazol-2-yl(1-methylpiperidin-4-yloxy)methyl]phenyl}pyrrolidin-3-one] |

same assay, conditions: human H4 receptor; evaluated in the GTPγ[35S] assay or in the [3H]histamine binding assay (not stated which per compound); Ki or IC50 class

| Ki or IC50 activity class | SMILES |
| --- | --- |
| < 30 nM | CN1CCC(OC(c2cccc(N3CCC(O)C3)c2)c2nc3ccccc3s2)CC1 (centres unmarked) [Example 407, 1-{3-[benzothiazol-2-yl(1-methylpiperidin-4-yloxy)methyl]phenyl}pyrrolidin-3-ol] |
